We go through 48 molecules from a melting point compilation (Tetko et al.).

In turn, `NS(=O)(=O)c1ccc2c(c1)C(=O)C(=O)N2` showed a melting point of 258 to 260 °C.

`CCOC(=O)NC(=N)N` returned a melting point of 104 to 106 °C.

Turning to `O=C(O)C#Cc1ccc2c(c1)OCO2`, the melting point is 165 to 167 °C.

For the molecule `Nc1nnc(C(=O)NCc2ccccc2)[nH]1`, the melting point was 248 to 250 °C.

On to `CN(c1ccccc1C(=O)O)S(C)(=O)=O`, for which the melting point lay within 146 to 148 °C.

In the case of `CC(=O)c1c[nH]c2cc(F)ccc12`, the melting point is 222 to 224 °C.

The molecule `O=C(CCc1ccccc1)c1ccccc1O` showed a melting point of 36 to 37 °C.

In turn, `NS(=O)(=O)c1ccc2c(c1)CC(C(=O)O)CO2` (stereo not drawn) gave a melting point of 213 to 215 °C.

`Nc1ccn(-c2ccccc2)n1` came in with a melting point of 77 to 79 °C.

Regarding `O=C(O)CCc1nc(-c2ccc(Cl)cc2)no1`, the melting point lay in the range of 152 to 154 °C.

Consider `Cn1c(Cl)nc2ccccc21`, for which the melting point lay within 111 to 113 °C.

With `O=S(=O)(Cl)c1ccc(Cl)cc1C(F)(F)F`, the melting point lay in the range of 45 to 47 °C.

For the molecule `COc1cccc(NC(=O)C=CC(=O)O)c1`, the melting point fell in the range of 151 to 153 °C.

In the case of `Cc1ccc(C(=O)c2ccccc2Cl)cc1`, the melting point lay in the range of 90 to 92 °C.

In turn, `CN(C)c1ccc(/C=C/C(=O)c2ccc([N+](=O)[O-])cc2)cc1` displayed a melting point of 213 to 215 °C.

`COc1ccc(CCC(=O)CC#N)cc1` came in with a melting point of 58 to 60 °C.

For `CC(C)(C)OC(=O)Nc1ccc(F)c(N)c1`, the melting point fell in the range of 122 to 124 °C.

`Cc1cc(C)cc(C=CC(=O)O)c1`: the melting point was 135 to 137 °C.

`O=C(Nc1ccccc1C(=O)O)c1ccc(Oc2ccccc2)cc1` showed a melting point of 189 to 191 °C.

`Nc1ccc(S(=O)(=O)C(F)(F)F)cc1`: the melting point lay within 94 to 96 °C.

The molecule `O=C1OCCN1c1ccc(Cl)c([N+](=O)[O-])c1` yielded a melting point of 163 to 165 °C.

`c1ccc(OCCc2nc3ccccc3[nH]2)cc1` gave a melting point of 136 to 138 °C.

As to `O=C(O)CNC(=O)c1ccc(Br)o1`, the melting point lay within 91 to 93 °C.

`O=C(Nc1cccc(S(=O)(=O)C2CCCC2)c1)OCC(F)(F)F`: the melting point lay in the range of 104 to 106 °C.

In the case of `Cc1ccc2c(c1)c(C=O)c(C)n2C`, the melting point lay in the range of 104 to 106 °C.

For the molecule `CC(Cl)C1CC(c2ccccc2)=NO1` (stereo not drawn), the melting point was in the range of 59 to 61 °C.

`NCc1nc(-c2ccc(Cl)cc2)cs1` displayed a melting point of 105 to 107 °C.

Take `COC(=O)c1ccc(CC#N)cc1`: the melting point was 55 to 58 °C.

`N#Cc1ccc(NC(N)=O)cc1`: the melting point fell in the range of 234 to 236 °C.

As to `O=C1CC(NC(=O)C(F)(F)F)c2ccsc21` (stereo not drawn), the melting point was in the range of 133 to 135 °C.

In the case of `Cc1ccc(C(=O)NC2CC2)cc1N`, the melting point lay within 114 to 116 °C.

`O=C1NC2CCCCCCC12` (stereo not drawn) returned a melting point of 64 to 66 °C.

Turning to `COCCN(CCOC)S(=O)(=O)c1ccc(C(=O)O)cc1`, the melting point lay within 147 to 149 °C.

Take `O=Cc1cc2ccccc2nc1O`: the melting point was 308 to 310 °C.

Turning to `CCn1cc(N2C(=O)C=CC2=O)cn1`, the melting point fell in the range of 92 to 94 °C.

`CC(Cl)C(=O)NCc1ccccc1F` (stereo not drawn) gave a melting point of 66 to 68 °C.

In turn, `NC(=O)NCC(F)(F)F` returned a melting point of 110 to 112 °C.

On to `Cc1nnc2c(Cl)cccn12`, for which the melting point is 163 to 165 °C.

In turn, `O=[N+]([O-])c1ccc(Br)c2ccncc12` displayed a melting point of 134 to 136 °C.

`CCCCCS(N)(=O)=O` displayed a melting point of 62 to 64 °C.

`O=C(Nc1nccs1)C(Cl)(Cl)Cl` returned a melting point of 203 to 205 °C.

For `O=C(O)COc1cc(F)ccc1F`, the melting point was 151 to 153 °C.

As to `COc1cn(-c2cccc(C(F)(F)F)c2)nc1C(=O)O`, the melting point lay in the range of 149 to 151 °C.

Take `Brc1ccc(OCC2CO2)cc1` (stereo not drawn): the melting point is 49 to 51 °C.

Take `CCOC(=O)c1c(C)[nH]c(C(C)=O)c1C`: the melting point lay within 115 to 117 °C.

On to `CC(C)(C)Cc1cc(N)on1`, for which the melting point fell in the range of 87 to 89 °C.

In the case of `CC1(Br)CS(=O)(=O)CC1Br` (stereo not drawn), the melting point lay in the range of 126 to 128 °C.

`CCOc1cc(Br)c(CC#N)cc1OCC` gave a melting point of 68 to 70 °C.
